Legend:
[1] = target: T1, MMP-7 (Homo sapiens, UniProt P09237); details: cited from earlier work
T1 sequence (P09237 95-267): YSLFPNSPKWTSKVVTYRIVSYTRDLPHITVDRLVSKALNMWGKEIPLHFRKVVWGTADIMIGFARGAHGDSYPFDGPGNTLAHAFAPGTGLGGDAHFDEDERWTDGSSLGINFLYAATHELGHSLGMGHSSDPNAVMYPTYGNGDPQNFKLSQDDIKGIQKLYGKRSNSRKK

[2] = system: HOZ mSMCs; test: Detachment of progeria mouse SMCs under flow shear stress; assay type: cell-based; details: flow conditions, media supplemented with inhibitor
Description: Mice. Male^LmnaG609G/G609G, and wild-type were used (Osorio F G, Navarro C L, Cadinanos J, Lopez-Mejia I C, Quiros P M, Bartoli C, Rivera J, Tazi J, Guzman G, Varela I, Depetris D, de Carlos F, Cobo J, Andres V, De Sandre-Giovannoli A, Freije J M, Levy N, Lopez-Otin C. Splicing-directed therapy in a new mouse model of human accelerated aging. Science translational medicine. 2011;3:106ra107). Animal studies were approved by the local <<comité d'éthique pour l'expérimentation animale>> (Marseille Animal Care Commitee, Protocol n° 96-21122012) and conformed to the Directive 2010/63/EU of the European parliament regarding the protection of animals used for experimental and other scientific purposes. Mouse vSMCs (mSMC) were prepared from thoracic aortas of 6 or 18 week-old mice. Briefly, after fat tissue removal around aortic region, aorta was dissected from its origin to the proximity of the diaphragm. Aortas from two mice were put into HBSS 1×, on ice then rinse once in HBSS. Aorta were digested 10 minutes at 37° C. in enzyme solution freshly prepared the day of isolation (Collagenase 1 mg/ml, Soybean Trypsin inhibitor 1 mg/ml, elastase 0.744 units/ml—Worthington biochemical—, penicillin/streptomycin 1%, HBSS 1×). […] The loss of mSMC during time was assessed by the percentage of occupied area.
We also analyzed the effect of MMP13 and BB94 inhibition in HOZ mSMCs. […]

[3] = target: MMP-9 (Homo sapiens, UniProt P14780); details: cited from earlier work
[4] = system: HGPS-iPSC SMCs; test: Cell detachment under arterial flow in microfluidic system (loss of function studies); assay type: cell-based, human; details: for HGPS-iPSC SMC detachment: both clones, arterial flow 20 dyne/cm^2, up to 12 days, MMP13 inhibitor 8 nM, BB-94 20 nM
Method: After 4 h, a confluent cell layer was formed, which was then perfused with SmGM-2 medium at physiological flow rate (20 dyne/cm^2). Unless specified, all tests were performed at day 0 and after 4 days on flow culture conditions. Cell number and cell clumps were determined on slides stained with DAPI (20×) and normalized by image area (0.3524 mm^2). Cell clumps areas were evaluated by Image J software.
In case of calcification inhibition studies, cells were treated with SmGM-2 medium containing sodium pyrophosphate (0.9 mM, Sigma), and in case of farnesyltrasferase inhibitor studies, cells were treated with SmGM-2 medium containing Tipifarnib (1 μM) or Lonafarnib (20 μM, Absouce Diagnostics). In MMP, calcification and farnesyltransferase inhibition studies, cells were perfused with medium containing the drug at a flow rate of 20 dyne/cm^2. Medium was changed every 7 days. Cell number and viability (Presto Blue assay) was monitored overtime. In case of MMP-13 inhibition studies, MMP activity was assessed at day 4, and the percentage of progerin positive cells and the expression of phosphatase alkaline were evaluated at day 7.
The complexation of siRNAs with lipofectamine was allowed to proceed for 40 min at room temperature. […] The culture media was changed after 72 h.

[5] = system: LmnaG609G/G609G mice; test: In vivo treatment of progeria mice with BB-94; design: species or system mouse
Method: In vivo studies. 16 Lmna^G609G/G609G mice (male and female) were used. […] IP injections were used to administrate 30 mg/Kg/day of BB-94 in 3 mg/ml in PBS containing 0.01% Tween 80. The treatment was applied 5 times per week during 6 weeks (from week 5 to week 10). […] At the end of week 10 the mice were sacrificed and the selected parameters were evaluated.
Gene Expression Profiling using Fluidigm. Small parts of mice aortas were frozen to be analyzed. These parts were lysated and homogenized using a MagNA instrument and MagNA Lyser Green Beads (with 5 mm (diameter) stainless steel beads). Total RNA were then isolated and quantified. DELTAgene assays (FlexSix—Fluidigm) were designed for […] transcripts. The pre-amplification process was performed for 14 cycles in order to obtain sensitivity down to a single cDNA molecule. The oligos were synthesized by Sigma and dissolved at a concentration of 100 μM in water. For each assay a Primer Pair Mix was prepared containing 50 μM Forward Primer and 50 μM Reverse Primer. In order to prepare 10× Pre-amplification Primer Mix (500 nM each primer), 10 μL of each of the 96 Primer Pair Mixes (50 μM each primer) was mixed with […] buffer consisting of 10 mM Tris-HCl, pH 8.0; 0.1 mM EDTA; 0.25% Tween-20. In order to prepare 10× Assay (5 μM each primer) each Primer Pair Mix was diluted by mixing 10 μL Primer Pair Mix (50 μM each primer) with 90 μL buffer consisting of 10 mM Tris-HCl, pH 8.0; 0.1 mM EDTA; 0.25% Tween-20. A pre-mix containing cDNA and primers was done and treatment with exonuclease I was performed to remove non-hybridized primers. The Fluidigm® FLEXsix™ Gene expression IFC was used with EvaGreen chemistry. After a prime of the chip, a 10× assay mix and sample mix were prepared and pipetted into the inlets. The chip was loaded and data was collected using the BioMark HD™. Data was analyzed using Fluidigm® Real Time PCR Analysis v2.1 software.
So far no therapy has been developed to target specifically SMC loss. Most of the compounds identified so far in pre-clinical tests to treat progeria have been focused in the reduction of progerin quantities, by either reducing its production or increasing its degradation, in the reduction of progerin toxicity by targeting its aberrant prenylation, or identifying compounds capable of restoring pathological phenotypes downstream of progerin accumulation. Therefore we asked whether the inhibition of MMP13 in LmnaG609G/G609G mice could retard SMC loss. […] LmnaG609G/G609G mice (n=8 for treatment group and control group; age: 5 weeks) were IP injected 5 times a week (30 mg/Kg/day; 3 mg/mL in PBS). […] At this time point we evaluated SMC loss in the aortic arch.

[6] = system: HGPS-iPSC SMCs; test: Response to farnesyltransferase inhibitor: prelamin A and nuclear morphology by immunofluorescence; assay type: cell-based, human; details: one dose 1 μM, after 48 h
Method: To evaluate whether HGPS-iPSC SMCs could respond to farnesyltransferase inhibitors, as shown for other progeria cell models, cells were treated with one dose of Tipifarnib (1 μM) and after 48 h cells were characterized for the expression of prelamin A. As expected, HGPS-iPSC SMCs accumulate nuclear prelamin A (approximately 95% of the cells), as shown by immunofluorescence (FIG. 12).
Immunofluorescence analysis—In an embodiment, cells were washed with PBS, fixed with 4% paraformaldehyde (Electron Microscopy Sciences) for 15 min at room temperature and washed again with PBS. […] Binding of primary antibodies to specific cells was detected with anti-mouse IgG Cy3 (Sigma) or anti-rabbit IgG Cy3 (JacksonImmunoResearch). Cell nuclei were stained with 4′, 6′-diamidino-2-phenylindole (DAPI) (Sigma) and the slides examined with a regular (Zeiss) or high-content fluorescence microscope (IN Cell 2200, GE Healthcare). Image) software was used to quantify the overall intensity of each image, which was then normalized for cell number.

Sequence of MMP-9 (P14780 94-707, species assumed): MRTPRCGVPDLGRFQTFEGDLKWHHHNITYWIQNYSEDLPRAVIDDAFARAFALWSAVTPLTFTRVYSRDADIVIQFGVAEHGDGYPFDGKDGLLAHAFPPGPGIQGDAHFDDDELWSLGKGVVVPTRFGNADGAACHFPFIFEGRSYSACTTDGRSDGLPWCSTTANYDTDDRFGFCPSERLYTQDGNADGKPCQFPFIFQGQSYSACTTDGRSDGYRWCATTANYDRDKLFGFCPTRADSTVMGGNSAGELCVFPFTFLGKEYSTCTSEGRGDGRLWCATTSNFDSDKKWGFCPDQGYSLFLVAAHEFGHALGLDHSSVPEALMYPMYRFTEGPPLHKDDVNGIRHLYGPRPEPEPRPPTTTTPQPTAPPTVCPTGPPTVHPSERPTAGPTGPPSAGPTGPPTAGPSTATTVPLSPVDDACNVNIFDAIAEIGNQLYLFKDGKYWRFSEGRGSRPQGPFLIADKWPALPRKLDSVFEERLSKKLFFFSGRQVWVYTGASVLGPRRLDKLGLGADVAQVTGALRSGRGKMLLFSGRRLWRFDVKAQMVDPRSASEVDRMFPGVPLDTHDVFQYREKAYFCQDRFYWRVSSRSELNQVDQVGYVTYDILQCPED

In the case of `CNC(=O)[C@H](Cc1ccccc1)NC(=O)[C@H](CC(C)C)[C@H](CSc1cccs1)C(=O)NO` [Batimastat, (2R,3S)-N4-Hydroxy-2-isobutyl-N1-[(2S)-1-(methylamino)-1-oxo-3-phenyl-2-propanyl]-3-[(2-thienylsulfanyl)methyl]succinamide], the IC50 [1] is given as ≤ 20 nM, the “detachment of HOZ mSMCs” value [2] is given as “significantly delayed” and the IC50 [3] is given as ≤ 20 nM. The “HGPS-iPSC SMC detachment” value [4] was “decreased significantly the detachment”, the “solubility of the compound” value ([5]; 3 mg/mL in PBS, IP injection) was “low solubility” and the “number of SMCs in aortic arch” value ([5]; IP 30 mg/Kg/day, 5 times per week, 6 weeks, cell nuclei counting and qRT-PCR, versus untreated animals) was “higher number of SMCs than untreated animals”. The “progerin in cells isolated from aortic arch” value ([5]; IP 30 mg/Kg/day, 6 weeks) was “No evidence of decrease of progerin” and the “intra-abdominal accumulation (precipitate)” value ([5]; IP 30 mg/Kg/day, treatment reduced from 10 to 6 weeks) was “intra-abdominal massive accumulation”.

For `NC(=O)N1CCC(CC(=O)N2CCC([C@H]3c4ncc(Br)cc4CCc4cc(Cl)cc(Br)c43)CC2)CC1` [Lonafarnib], the cellular detachment ([4]; HGPS-iPSC SMC clone 1, arterial flow, Tipifarnib 1 μM, Lonafarnib 20 μM) was “able to decrease cellular detachment”.

For `Cn1cncc1[C@@](N)(c1ccc(Cl)cc1)c1ccc2c(c1)c(-c1cccc(Cl)c1)cc(=O)n2C` [Tipifarnib], the “cells accumulating nuclear prelamin A” value [6] was “approximately 95 % of the cells”.

With `O=P([O-])([O-])OP(=O)([O-])[O-].[Na+].[Na+].[Na+].[Na+]` [sodium pyrophosphate] the SMC detachment ([4]; calcification inhibition, sodium pyrophosphate 0.9 mM, arterial flow) was “significant decreased in SMC detachment”.

For `Cc1cc(CNC(=O)c2cc(C(=O)NCc3ccc(F)c(C)c3)ncn2)ccc1F` [MMP-13 inhibitor, pyrimidine-4,6-dicarboxylic acid, bis-(4-fluoro-3-methyl-benzylamide)], the “detachment of HOZ mSMCs” value [2] was “significantly delayed” and the “HGPS-iPSC SMC detachment” value [4] was “decreased significantly the detachment”.

Source: US20180000817A1, “TREATMENT OF HUTCHINSON-GILFORD PROGERIA SYNDROME AND DISEASES RELATED TO VASCULAR AGEING” (BIOCANT - ASSOCIAÇÃO DE TRANSFERÊNCIA DE TECNOLOGIA, priority 2015, published 2018)
